Publication PMC9401491, “The Novel Nucleoside Analogue ProTide NUC-7738 Overcomes Cancer Resistance Mechanisms In Vitro and in a First-In-Human Phase I Clinical Trial” (Clinical Cancer Research, 2021)
pIC50: −log10 of the molar value. Like-named read-outs stand apart in the source and are kept apart here.

Experiments:
HINT1 KO HAP1 cells = assay: Sensitivity of HINT1 CRISPR/Cas9 knockout HAP1 cells; type: cell-based, human; settings: HAP1 polyclonal and clonal HINT1 KO vs WT
Method: (§1) Cells were transfected with stealth siRNA (catalog no. HSS104782, catalog no. HSS104784, catalog no. HSS179235; ThermoFisher) targeting HINT-1 using Lipofectamine RNAiMAX (Invitrogen) following the manufacturer's protocol. At 48 hours posttransfection, cells were treated and cell viability was measured 96 hours posttransfection as described above. Samples for Western blot analysis were harvested 48 hours posttransfection. For gene-depletion experiments, approximately 4 × 10^5 HAP1 cells were seeded per well in a 6-well plate and grown to approximately 50% confluency. After 24 hours, cells were transfected with lentiCRISPR v2 plasmid (GenScript) containing a guide RNA (gRNA) targeting gene of interest using Turbofectin (catalog no. TF81001, OriGene) according to manufacturer's instruction. The following sequences were used: HINT-1 CRISPR gRNA 2 ([…]) and NUDT2 CRISPR gRNA 2 ([…]). At 24 hours posttransfection, positively transfected cells were selected using […] puromycin for 72 hours. After selection, surviving colonies were expanded and used for downstream analysis. For clonal selection, clones were selected using limited dilution and expanded into a 6-well plate for Western blot screening.
HAP1 cells were seeded at a density of 10,000 cells per well in 6-well plates and indicated drug concentrations were added. […]

renal cancer cell lines = assay: siRNA HINT1 knockdown in renal cancer cell lines; type: cell-based
Method: as §1

501MEL = assay: MTT cell viability, 501MEL; type: cell-based; settings: 48 h
Method: (§2) Cells (10^4) were seeded into 96-well plates and then treated with NUC-7738 (lot 5132/E00393/119) or 3′-dA (cordycepin, catalog no. C3394, lot 067M4182, Sigma) for 48 hours. One and a half milligrams per milliliter MTT (catalog no. M6494, Invitrogen) in a 1:1 ratio was added to cell culture media. After a 2-hour incubation at 37°C, media was removed and 70 μl of isopropanol was added. Optical densities at 570 nm were measured using POLARstar Omega plate reader. Readouts were normalized and IC50 values were calculated using a nonlinear regression model in Graphpad prism (v8.3.0). Each biological replicate (at least 3) was performed in 4 technical replicates to calculate the average IC50 value. To measure apoptosis, the Guava NexinReagent (Luminex Corp.) was used following manufacturer's instructions. Fluorescence staining was measured with an automated 96-well Guava easyCyte Flow Cytometer (Luminex Corp.).

[1] = Beagle dog 4-week toxicology and toxicokinetics
786-O = assay: IC50 in renal cancer cell line 786-O; type: cell-based; settings: Homo sapiens, 786-0
UO-31 = assay: MTT cell viability, UO-31; type: cell-based; settings: Homo sapiens, UO-31, 48 h
Method: as §2

[2] = system: Gastric or cervical cancer cells; assay: Apoptosis by cleaved PARP Western blot; type: cell-based; settings: 50 and 100 μmol/L, 24 hours
Method: as §2
Cells were harvested and lyzed using RIPA lysis and extraction buffer (Thermo Scientific) following manufacturer's protocol. Twenty to 30 μg of total protein lysates was loaded on Mini-PROTEAN TGX precast gels (Bio-Rad). Separated proteins were transferred to a polyvinylidene difluoride (PVDF) membrane using Trans-Blot Turbo Transfer System (Bio-Rad) followed by incubation with primary and horseradish peroxidase (HRP)–conjugated secondary antibodies [anti-mouse, catalog no. […]

Tera-1 = assay: MTT cell viability, Tera-1; type: cell-based
Method: as §2

[3] = design: method as in PMID 22833171, PMID 24419340; settings: rat serum; cited from earlier work
AGS = assay: MTT cell viability, AGS; type: cell-based; settings: Homo sapiens, 48 h
Method: as §2

SK-OV3 = assay: MTT cell viability, SK-OV3; type: cell-based; settings: Homo sapiens, SK-OV-3, 48 h
Method: as §2

NF-κB = NF-κB SEAP reporter and p65 fractionation in THP-1 cells; type: cell-based
Method: Cells were harvested and lyzed using RIPA lysis and extraction buffer (Thermo Scientific) following manufacturer's protocol. Twenty to 30 μg of total protein lysates was loaded on Mini-PROTEAN TGX precast gels (Bio-Rad). Separated proteins were transferred to a polyvinylidene difluoride (PVDF) membrane using Trans-Blot Turbo Transfer System (Bio-Rad) followed by incubation with primary and horseradish peroxidase (HRP)–conjugated secondary antibodies [anti-mouse, catalog no. 7076S, Cell Signaling Technology (CST) or anti-rabbit, catalog no. 7074S, CST] and ECL Prime Western blotting (GE Healthcare) detection. For fractionation, cells were grown in 10-cm tissue culture plates and treated with 30 or 60 μmol/L of 3′-dA or NUC-7738 for 6 hours. Cells were grown in 10-cm tissue culture plates and fractionated using the Nuclear Extraction Kit (Abcam) following manufacturer's instructions. Twenty-five micrograms of each fraction was used for Western blot (WB) detection. NF-κB p65 antibody (catalog no. 8242, CST), nuclear marker Lamin B1 (catalog no. ab16048, Abcam), cytosolic GAPDH (catalog no. 97166, CST), cleaved PARP (catalog no. 9541, CST), and Actin (MAB1501, Merck) were used.
Figure 5. […] C, NF-κB activity was measured using the SEAP reporter gene assay in THP-1 cells. […] SEAP production as result of NF-κB activity was measured using the QuantiBlue colorimetric enzyme assay. […]

ACHN = assay: MTT cell viability, ACHN; type: cell-based; settings: Homo sapiens, 48 h
Method: as §2

HAP1 cells = assay: MTT cell viability, HAP1 cells; type: cell-based; settings: Homo sapiens
Method: as §2

## C[C@H](NP(=O)(OC[C@@H]1C[C@@H](O)[C@H](n2cnc3c(N)ncnc32)O1)Oc1ccccc1)C(=O)OCc1ccccc1 (stereo partly drawn) [NUC-7738, 3′-deoxyadenosine-5′-O-phenyl-(benzyloxy-L-alaninyl)-phosphate]
HINT1 KO HAP1 cells
  sensitivity after depletion of HINT1: markedly reduced sensitivity
Renal cancer cell lines
  sensitivity after HINT1 depletion to minimal residual levels: no difference in sensitivity
501MEL
  pIC50: 4.96
[1]; 10 mg/kg/day, sex mean at day 26
  mean AUC(0-t): 638 ng/h/mL
[1]; 20 mg/kg/day, iv slow injection, 4 cycles
  toxicology findings: induced changes in the liver and bone marrow
[1]; all doses, significance >2-fold change
  systemic exposure (mean Cmax and AUC 0-t), single vs repeated administrations: No significant differences
[1]; both, beagle, plasma, iv
  Tmax: 15 min
  clearance: 245 to 533 mL/min/kg
  half-life: 13.2 to 27.6 min
[1]; both, beagle, plasma, iv, 10 mg/kg/day
  Cmax: 1560 ng/mL
[1]; iv, 4 cycles (4 weeks)
  highest nonseverely toxic dose (HNSTD): 10 mg/kg/day
786-O
  pIC50: 4.89
UO-31
  pIC50: 4.38
[2]
  apoptotic cell death, cleaved PARP-1: induced apoptotic cell death
Tera-1; 48 h
  pIC50: 5.36
Tera-1; Tera-1 teratocarcinoma
  sensitivity to NUC-7738 compared with 3′-dA: more than 40 fold
[3]
  half-life in serum: less than 2 minutes
AGS
  pIC50: 4.95
SK-OV3
  pIC50: 4.78
NF-κB; NF-κB THP1 reporter cell line, LPS, fractionation and Western blot
  nuclear translocation of NF-κB: a reduction in the nuclear translocation of NF-κB
NF-κB; THP-1 SEAP reporter, LPS induced
  NF-κB activation: significantly reduced NF-κB activation
ACHN
  pIC50: 4.26
HAP1 cells; HAP1, 48 h
  pIC50: 5.14
  IC90: 54.2 µM
HAP1 cells; HAP1, read-out: IC50 concentration used for RNA-seq
  pIC50: 5.12
HAP1 cells; HAP1, read-out: IC90 concentration used for RNA-seq
  IC90: 125 µM
